# Patent US20110224226A1, “COMPOSITIONS AND METHODS FOR INCREASING BLOOD PLATELET LEVELS IN HUMANS” (AKARX, Inc., priority 2006, published 2011)
# What was measured:
# [1] = in-vitro plasma protein binding, mice; assay type: in vitro ADME; settings: mouse, 0.05 to 50 μg/mL
# Protocol: (§1) The in-vitro plasma protein binding of the drug of Formula I was independent of concentration over the concentration range of 0.05 to 50 μg/mL and was 87.2-89.1% in mice; 87.6-89.2% in rats; 88.3-92.0% in rabbits; […] in dogs; 97.0-97.6% in monkeys; and 96.3-96.6% in humans.
# [2] = Example 2 multi-dose study: safety; assay type: in vivo, human; settings: up to 20 mg daily for ten (10) to fourteen (14) days, healthy volunteers
# Protocol: (§2) A double-blind, placebo-controlled, dose rising study was performed in healthy male and female volunteers. Each dose cohort received either placebo or active treatment as an oral suspension once daily for fourteen (14) consecutive days. The dose of study drug was prepared and administered as described in Example 1 above. The doses administered in this multiple dose study were based on the safety and tolerability assessment of the doses administered in Example 1.
# (§3) Based on the results of Example 1, the starting dose was 3 mg. Based on the safety and tolerability results from Example 1, the dose was scheduled to be escalated to 10, 20, 50 and 100 mg per day for 14 consecutive days. Successive dose cohorts were not treated until the previous cohort completed 14 days of treatment and the safety follow-up visit on Day 21.
# [3] = target: T1, human c-Mpl (Homo sapiens, UniProt P40238); assay: interference with rhTPO binding to human platelets; settings: concentrations up to 100 μM
# T1 construct: endogenous in cells; host or cells: human platelets
# T1 sequence (P40238 26-635): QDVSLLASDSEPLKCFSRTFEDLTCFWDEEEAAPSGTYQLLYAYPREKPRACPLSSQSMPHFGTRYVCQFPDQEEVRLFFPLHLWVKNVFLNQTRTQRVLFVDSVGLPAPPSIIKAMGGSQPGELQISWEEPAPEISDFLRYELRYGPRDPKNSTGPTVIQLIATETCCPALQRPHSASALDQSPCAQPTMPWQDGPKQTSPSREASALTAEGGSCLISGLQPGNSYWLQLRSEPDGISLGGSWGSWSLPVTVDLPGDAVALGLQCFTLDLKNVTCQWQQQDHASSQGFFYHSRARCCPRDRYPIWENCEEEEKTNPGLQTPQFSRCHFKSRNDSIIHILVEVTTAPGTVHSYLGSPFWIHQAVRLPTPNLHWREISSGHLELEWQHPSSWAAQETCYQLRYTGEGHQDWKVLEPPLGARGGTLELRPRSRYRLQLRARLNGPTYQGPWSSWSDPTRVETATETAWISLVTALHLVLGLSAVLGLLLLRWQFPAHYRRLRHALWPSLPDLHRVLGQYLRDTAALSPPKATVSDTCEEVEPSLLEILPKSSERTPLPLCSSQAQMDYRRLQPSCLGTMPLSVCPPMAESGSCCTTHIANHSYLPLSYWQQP
# [4] = QT interval in cynomolgus monkeys; assay type: in vivo; settings: 100 and 1000 mg/kg, appears related to decreased heart rate from acclimation, not drug related
# [5] = target: 2C19 (Homo sapiens, UniProt P33261); assay: inhibition of human liver cytochrome P450 2C19; assay type: in vitro ADME; settings: human liver cytochrome P450 isoenzyme
# [6] = species specificity of activity; parameters: species or system chimpanzee and man
# [7] = tested on: liver microsomal enzymes; assay: metabolism by human liver microsomal enzymes; assay type: in vitro ADME
# [8] = in-vitro plasma protein binding, rats; assay type: in vitro ADME; settings: rat, 0.05 to 50 μg/mL
# Protocol: as §1
# [9] = tested on: human cord blood (CB) CD34^+ cells; assay: differentiation of human cord blood CD34+ cells to megakaryocytes; assay type: cell-based; settings: concentration-dependent; maximum effect similar to that of rhTPO
# [10] = 4-week repeat dose toxicity in rats; assay type: in vivo, rat
# [11] = tested on: platelet count; assay: Example 2 multi-dose study: pharmacodynamics (platelet count); assay type: in vivo, human
# Protocol: as §2, §3
# [12] = cardiovascular and respiratory system effects in the conscious dog; assay type: in vivo; settings: up to a dose of 300 mg/kg
# [13] = target: 2D6 (Homo sapiens, UniProt P10635); assay: inhibition of human liver cytochrome P450 2D6; assay type: in vitro ADME; settings: human liver cytochrome P450 isoenzyme
# Chain of 2D6 (P10635 whole entry): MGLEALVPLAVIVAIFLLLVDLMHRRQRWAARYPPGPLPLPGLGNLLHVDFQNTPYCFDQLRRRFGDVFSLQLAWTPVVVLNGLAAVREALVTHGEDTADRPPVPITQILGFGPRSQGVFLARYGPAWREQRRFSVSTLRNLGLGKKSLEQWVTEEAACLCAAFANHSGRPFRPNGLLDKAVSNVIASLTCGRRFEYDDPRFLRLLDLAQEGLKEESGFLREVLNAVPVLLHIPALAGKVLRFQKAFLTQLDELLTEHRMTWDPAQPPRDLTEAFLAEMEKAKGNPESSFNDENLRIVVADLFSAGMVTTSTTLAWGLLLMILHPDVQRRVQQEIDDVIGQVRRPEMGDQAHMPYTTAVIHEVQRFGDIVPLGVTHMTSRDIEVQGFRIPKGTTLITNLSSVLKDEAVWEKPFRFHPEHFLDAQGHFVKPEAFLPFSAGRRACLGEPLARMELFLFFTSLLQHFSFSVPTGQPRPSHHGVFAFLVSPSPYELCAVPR
# Chain of 2C19 (P33261 whole entry): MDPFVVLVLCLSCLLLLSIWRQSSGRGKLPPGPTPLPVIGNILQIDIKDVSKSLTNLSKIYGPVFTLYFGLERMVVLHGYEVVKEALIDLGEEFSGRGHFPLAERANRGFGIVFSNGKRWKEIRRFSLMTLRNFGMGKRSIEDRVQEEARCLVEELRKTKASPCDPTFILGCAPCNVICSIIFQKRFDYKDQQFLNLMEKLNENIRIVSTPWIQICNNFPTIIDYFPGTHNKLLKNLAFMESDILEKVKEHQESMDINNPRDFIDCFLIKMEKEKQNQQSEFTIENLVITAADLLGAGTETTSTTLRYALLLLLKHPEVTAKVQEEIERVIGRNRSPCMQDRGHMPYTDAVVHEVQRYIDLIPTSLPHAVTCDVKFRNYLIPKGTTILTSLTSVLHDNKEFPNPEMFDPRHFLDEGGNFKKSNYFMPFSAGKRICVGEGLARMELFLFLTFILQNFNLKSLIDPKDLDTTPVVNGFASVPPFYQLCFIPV
smiles,measurement,setting,value
"O=C(Nc1nc(-c2cc(Cl)cs2)c(N2CCN(C3CCCCC3)CC2)s1)c1cnc(N2CCC(C(=O)O)CC2)c(Cl)c1 [Formula I, 1-(3-chloro-5-{[4-(4-chlorothiophen-2-yl)-5-(4-cyclohexylpiperazin-1-yl)thiazol-2-yl]carbamoyl}pyridin-2-yl)piperadine-4-carboxylic acid]",fraction unbound,[1],0.109 to 0.128
same,tolerability (drug-related clinical or laboratory adverse experiences),[2],well tolerated
same,interference with rhTPO binding to human platelets,[3],does not interfere
same,QT interval,[4],prolongation of QT interval was reported
same,inhibition of CYP2C19,[5],did not inhibit
same,species specificity,[6],activity only in the chimpanzee and man
same,metabolism by liver microsomal enzymes,[7],does not appear to be metabolized
same,fraction unbound,[8],0.108 to 0.124
same,differentiation of human cord blood CD34+ cells to human megakaryocytes,[9],promotes the differentiation
same,reversibility of gastric mucosa changes,"[10]; rat, on drug withdrawal",resolved on drug withdrawal
same,CK and aldolase levels,"[10]; rat, repeat dosing 4 weeks",Elevated levels of CK and aldolase
same,"muscle degeneration/necrosis in femoral, lower thigh or multifides muscles","[10]; rat, repeat dosing 4 weeks",1 or 2 rats per dose group
same,changes in the gastric mucosa,"[10]; rats, repeat dosing 4 weeks, 3, 10, 30, 100 mg/kg/day",degeneration of chief cells and parietal cells
same,dose-concentration-response relationship for changes in platelet count,"[11]; 3 mg to 20 mg dose range, repeat dosing",linear increases in platelet counts over baseline
same,"day by which the revised PD limit (>500,000 platelets) occurred in all six (6) subjects",[11]; 20 mg cohort,10 to 11 days
same,dose cohort in which the original PD limit (five subjects with >50% increase in platelet count) was reached,[11]; once daily dosing,10 mg
same,platelet counts following repeat administration,[11]; repeat administration of 10 mg and 20 mg,Statistically significant increases in platelet counts
same,cardiovascular or respiratory system effects,[12],No cardiovascular or respiratory system effects were observed
same,inhibition of CYP2D6,[13],did not inhibit
